The results in this text go back to patent US10870647B2, “Imidazopyridine derivative, method for preparing same, and pharmaceutical composition containing same as active ingredient for preventing or treating cancer” (DAEGU-GYEONGBUK MEDICAL INNOVATION FOUNDATION, priority 2016, dated 2020).

What all share (assay): Kinase selectivity, scanMAX Kinase assay panel (DiscoverX), % control at 1 uM
Type in all cases: binding

The target of test [1] is T1, scanMAX Kinase assay panel (Homo sapiens, UniProt P54753).
T1 construct: purchased DiscoverX
T1 sequence (P54753 34-998): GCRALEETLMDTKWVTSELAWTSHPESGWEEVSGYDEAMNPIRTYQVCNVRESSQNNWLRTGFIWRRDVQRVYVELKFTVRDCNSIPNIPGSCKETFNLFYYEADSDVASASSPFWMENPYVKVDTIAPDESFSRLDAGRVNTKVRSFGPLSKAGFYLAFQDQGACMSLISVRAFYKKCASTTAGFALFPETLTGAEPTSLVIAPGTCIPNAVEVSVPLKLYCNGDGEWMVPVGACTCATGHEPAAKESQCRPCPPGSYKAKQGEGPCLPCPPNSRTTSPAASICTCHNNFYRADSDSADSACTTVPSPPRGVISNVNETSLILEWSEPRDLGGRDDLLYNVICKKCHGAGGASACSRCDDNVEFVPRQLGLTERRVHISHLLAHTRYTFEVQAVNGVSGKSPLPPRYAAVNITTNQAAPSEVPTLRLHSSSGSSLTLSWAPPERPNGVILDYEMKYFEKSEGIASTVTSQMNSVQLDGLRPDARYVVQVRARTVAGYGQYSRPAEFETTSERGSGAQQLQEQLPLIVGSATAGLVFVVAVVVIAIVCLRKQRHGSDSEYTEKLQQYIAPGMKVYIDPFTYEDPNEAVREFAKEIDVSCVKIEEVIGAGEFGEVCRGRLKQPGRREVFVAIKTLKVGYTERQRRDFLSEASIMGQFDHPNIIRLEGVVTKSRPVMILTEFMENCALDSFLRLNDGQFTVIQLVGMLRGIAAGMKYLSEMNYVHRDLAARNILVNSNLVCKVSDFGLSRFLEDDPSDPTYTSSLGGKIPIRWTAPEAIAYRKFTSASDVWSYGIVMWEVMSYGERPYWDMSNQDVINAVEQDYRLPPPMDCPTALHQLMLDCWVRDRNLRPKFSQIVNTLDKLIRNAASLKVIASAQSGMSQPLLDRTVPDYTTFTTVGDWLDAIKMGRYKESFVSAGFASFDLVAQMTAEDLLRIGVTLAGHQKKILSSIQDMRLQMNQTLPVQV
Particulars: EPHB3; 1 uM; read-out: Percent Control (%). The essentials:
(§1)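 Each kinase was first exposed to the test compound at 1 uM in DMSO. Signal was then normalised to positive and negative controls to give % control. Finally, any enzyme showing <35% control was judged inhibited.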

Test [2] deals with T2, scanMAX Kinase assay panel (Homo sapiens, UniProt Q05397).
T2 construct: purchased DiscoverX
T2 sequence (Q05397 whole entry): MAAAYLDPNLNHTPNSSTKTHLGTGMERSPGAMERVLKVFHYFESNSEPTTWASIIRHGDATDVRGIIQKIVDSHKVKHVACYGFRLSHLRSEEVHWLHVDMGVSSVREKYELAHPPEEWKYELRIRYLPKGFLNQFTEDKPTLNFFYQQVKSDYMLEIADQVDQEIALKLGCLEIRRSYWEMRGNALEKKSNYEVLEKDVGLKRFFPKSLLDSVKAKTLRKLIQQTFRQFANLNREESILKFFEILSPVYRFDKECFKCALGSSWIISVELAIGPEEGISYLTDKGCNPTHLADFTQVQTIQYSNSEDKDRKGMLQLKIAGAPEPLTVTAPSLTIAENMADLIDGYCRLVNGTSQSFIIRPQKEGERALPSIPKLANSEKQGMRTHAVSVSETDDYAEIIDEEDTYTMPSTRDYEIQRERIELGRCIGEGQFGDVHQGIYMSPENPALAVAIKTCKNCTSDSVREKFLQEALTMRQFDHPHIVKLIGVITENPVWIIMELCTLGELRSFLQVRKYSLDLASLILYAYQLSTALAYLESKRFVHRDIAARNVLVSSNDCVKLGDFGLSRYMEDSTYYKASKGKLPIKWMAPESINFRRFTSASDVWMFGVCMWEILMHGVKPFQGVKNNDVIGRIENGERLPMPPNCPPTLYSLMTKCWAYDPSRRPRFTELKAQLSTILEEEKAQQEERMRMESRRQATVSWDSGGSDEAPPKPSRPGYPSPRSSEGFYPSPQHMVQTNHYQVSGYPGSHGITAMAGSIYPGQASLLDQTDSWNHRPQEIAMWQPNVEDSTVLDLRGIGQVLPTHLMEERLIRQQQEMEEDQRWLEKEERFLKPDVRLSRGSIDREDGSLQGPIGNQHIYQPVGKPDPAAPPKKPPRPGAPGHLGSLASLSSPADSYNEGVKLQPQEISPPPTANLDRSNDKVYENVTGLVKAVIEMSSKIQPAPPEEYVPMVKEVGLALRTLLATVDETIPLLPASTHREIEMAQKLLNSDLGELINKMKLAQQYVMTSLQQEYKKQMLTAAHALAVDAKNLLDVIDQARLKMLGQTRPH
Particulars: FAK; 1 uM; read-out: Percent Control (%). The essentials:
as §1

Test [3] deals with T3, scanMAX Kinase assay panel (Homo sapiens, UniProt Q92772).
T3 construct: purchased DiscoverX
T3 sequence (Q92772 1-493): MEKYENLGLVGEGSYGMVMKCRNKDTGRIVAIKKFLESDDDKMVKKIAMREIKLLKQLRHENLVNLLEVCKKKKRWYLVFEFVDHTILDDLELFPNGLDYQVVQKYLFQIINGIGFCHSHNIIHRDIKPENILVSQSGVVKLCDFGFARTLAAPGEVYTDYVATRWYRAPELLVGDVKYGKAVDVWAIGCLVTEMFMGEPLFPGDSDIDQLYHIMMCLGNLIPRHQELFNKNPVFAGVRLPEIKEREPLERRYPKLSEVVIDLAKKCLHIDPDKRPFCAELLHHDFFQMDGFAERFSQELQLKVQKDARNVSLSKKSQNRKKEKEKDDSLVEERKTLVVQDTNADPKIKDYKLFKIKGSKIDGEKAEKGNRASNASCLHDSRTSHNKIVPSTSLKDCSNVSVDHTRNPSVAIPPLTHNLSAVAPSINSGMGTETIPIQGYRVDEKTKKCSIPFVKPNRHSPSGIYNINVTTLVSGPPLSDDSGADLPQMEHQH
The settings on record: CDKL2; 1 uM; read-out: Percent Control (%). A digest of the protocol:
as §1

The target in test [4] is T4, scanMAX Kinase assay panel (Homo sapiens, UniProt P35916).
T4 construct: purchased DiscoverX
T4 sequence (P35916 25-1363): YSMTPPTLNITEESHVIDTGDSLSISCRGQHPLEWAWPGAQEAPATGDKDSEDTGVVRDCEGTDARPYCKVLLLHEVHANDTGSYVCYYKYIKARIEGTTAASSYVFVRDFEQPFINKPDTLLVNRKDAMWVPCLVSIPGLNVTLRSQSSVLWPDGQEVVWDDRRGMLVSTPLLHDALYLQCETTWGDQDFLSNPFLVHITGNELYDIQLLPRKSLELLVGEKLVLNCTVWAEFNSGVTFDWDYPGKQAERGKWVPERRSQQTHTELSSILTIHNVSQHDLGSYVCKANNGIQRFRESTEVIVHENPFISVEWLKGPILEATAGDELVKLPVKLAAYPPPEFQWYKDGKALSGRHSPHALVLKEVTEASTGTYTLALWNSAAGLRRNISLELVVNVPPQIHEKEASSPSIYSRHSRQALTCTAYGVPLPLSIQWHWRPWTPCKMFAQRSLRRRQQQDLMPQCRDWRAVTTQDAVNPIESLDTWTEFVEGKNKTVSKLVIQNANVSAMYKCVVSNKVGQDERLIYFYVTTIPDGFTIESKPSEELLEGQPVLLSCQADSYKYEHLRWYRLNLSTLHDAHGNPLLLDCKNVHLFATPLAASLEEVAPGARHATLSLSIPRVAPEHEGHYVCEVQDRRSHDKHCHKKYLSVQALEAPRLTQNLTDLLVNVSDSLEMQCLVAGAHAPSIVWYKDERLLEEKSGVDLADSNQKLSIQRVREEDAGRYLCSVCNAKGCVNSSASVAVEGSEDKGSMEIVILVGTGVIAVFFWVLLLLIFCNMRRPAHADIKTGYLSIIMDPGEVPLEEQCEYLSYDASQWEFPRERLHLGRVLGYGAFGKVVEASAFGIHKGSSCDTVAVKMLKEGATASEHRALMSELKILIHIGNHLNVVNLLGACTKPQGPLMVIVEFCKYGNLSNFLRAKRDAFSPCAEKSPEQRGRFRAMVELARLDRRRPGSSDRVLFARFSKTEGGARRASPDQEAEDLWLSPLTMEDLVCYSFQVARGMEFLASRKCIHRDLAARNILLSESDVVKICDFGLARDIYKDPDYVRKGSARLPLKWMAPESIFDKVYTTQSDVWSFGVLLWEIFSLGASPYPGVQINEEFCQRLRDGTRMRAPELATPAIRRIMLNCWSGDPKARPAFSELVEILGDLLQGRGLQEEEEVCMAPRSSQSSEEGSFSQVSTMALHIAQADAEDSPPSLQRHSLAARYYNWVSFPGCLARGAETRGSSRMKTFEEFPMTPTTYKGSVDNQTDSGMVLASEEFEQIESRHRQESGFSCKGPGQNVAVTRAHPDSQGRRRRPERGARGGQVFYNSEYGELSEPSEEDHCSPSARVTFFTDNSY
The settings on record: FLT4; 1 uM; read-out: Percent Control (%). The essentials: as §1

Consider `Cc1ccc(C(=O)Nc2ccc(CN3CCN(C)CC3)c(C(F)(F)F)c2)cc1C#Cc1cnc2c(Nc3cnn(C)c3)cccn12` [Example 1, 4-methyl-3-((8-((1-methyl-1H-pyrazol-4-yl)amino)imidazo[1,2-a]pyridin-3-yl)ethynyl)-N-(4-((4-methylpiperazin-1-yl)methyl)-3-(trifluoromethyl)phenyl)benzamide], for which the remaining binding at 1 µM stood at 47% in test [1], 39% in test [2], 0% in test [3] and 1% in test [4].
The like results for `Cc1cn(-c2cc(NC(=O)c3ccc(C)c(C#Cc4cnc5c(Nc6cnn(C)c6)cccn45)c3)cc(C(F)(F)F)c2)cn1` [Example 12, 4-methyl-N-(3-(4-methyl-1H-imidazol-1-yl)-5-(trifluoromethyl)phenyl)-3-((8-((1-methyl-1H-pyrazol-4-yl)amino)imidazo[1,2-a]pyridin-3-yl)ethynyl)benzamide] were, in that order, 100%, 10%, 55% and 6%.
Taken in the same sequence, the figures for `Cc1ccc(NC(=O)C2(C(=O)Nc3ccc(F)cc3)CC2)cc1C#Cc1cnc2c(Nc3cnn(C(C)C)c3)cccn12` [Example 78] were 100%, 96%, 94% and 26%.
